The values below come from patent US4663321A, “Triazolobenzodiazepines and pharmaceutical use” (Merck & Co., Inc., priority 1985, dated 1987).

Assay [1] deals with CCK receptor. The conditions noted are these: prior art CCK antagonists; cited from earlier work.
In a further assay the test system is gastrin receptor. The conditions noted are these: cited from earlier work.
The target of assay [2] is T1, CCK receptor (Rattus norvegicus, UniProt P30551).
T1 construct: The whole pancreas was dissected free of fat tissue and was homogenized; from tissue; host or cells: rat (Sprague-Dawley) whole pancreas membranes
T1 sequence (P30551 1-444): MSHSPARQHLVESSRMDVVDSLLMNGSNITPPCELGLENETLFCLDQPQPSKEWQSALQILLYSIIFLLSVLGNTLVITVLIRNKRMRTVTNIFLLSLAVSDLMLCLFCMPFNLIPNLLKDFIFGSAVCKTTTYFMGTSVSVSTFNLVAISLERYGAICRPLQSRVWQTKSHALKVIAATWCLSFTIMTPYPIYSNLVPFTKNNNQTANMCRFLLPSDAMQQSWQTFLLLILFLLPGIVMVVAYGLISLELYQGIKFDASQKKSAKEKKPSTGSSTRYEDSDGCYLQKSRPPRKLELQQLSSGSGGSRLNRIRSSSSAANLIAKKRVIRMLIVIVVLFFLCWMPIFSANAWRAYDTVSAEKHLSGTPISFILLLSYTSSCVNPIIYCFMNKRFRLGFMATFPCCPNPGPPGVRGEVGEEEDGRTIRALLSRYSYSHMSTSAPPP
The assay can be described thus: CCK receptor binding (pancreas), inhibition of 125I-CCK-33 binding. The arrangement: species or system rat (Male Sprague-Dawley). To be noted: for effect on the 125I-CCK receptor binding assay: protease inhibitor additives of the assay buffer. The protocol:
1. CCK receptor binding (pancreas)
CCK-33 was radiolabeled with ^125 I-Bolton Hunter reagent (2000 Ci/mmole) as described by Sankara et al. (J. Biol. Chem. 254: 9349-9351, 1979). Receptor binding was performed according to Innis and Snyder (Proc. Natl. Acad. Sci. 77: 6917-6921, 1980) with the minor modification of adding the additional protease inhibitors, phenylmethane sulfonyl fluoride and o-phenanthroline. The latter two compounds have no effect on the ^125 I-CCK receptor binding assay.
Male Sprague-Dawley rats (200-350 g) were sacrificed by decapitation. The whole pancreas was dissected free of fat tissue and was homogenized in 20 volumes of ice-cold 50 mM. Tris HCl (pH 7.7 at 25° C.) with a Brinkmann Polytron PT 10. The homogenates were centrifuged at 48,000 g for 10 min. Pellets were resuspended in Tris Buffer, centrifuged as above and resuspended in 200 volumes of binding assay buffer (50 mM Tris HCl, pH 7.7 at 25° C., 5 mM dithiothrietol, 0.1 mM bacitracin, 1.2 mM phenylmethane sulfonyl fluoride and 0.5 mM o-phenanthroline). […] All assays were run in duplicate or triplicate. The reaction mixtures were incubated at 37° C. for 30 minutes and centrifuged in a Beckman Microfuge (4 minutes) immediately after adding 1 ml of ice-cold incubation buffer. The supernatant was aspirated and discarded, pellets were counted with a Beckman gamma 5000. For Scatchard analysis (Ann. N.Y. Acad. Sci. 51: 660, 1949), ^125 I-CCK-33 was progressively diluted with increasing concentrations of CCK-33.

In assay [3] the target is T2, CCK receptor (Cavia porcellus, UniProt H0VZC5).
T2 construct: Cerebral cortex was dissected and used as a receptor source; from tissue; host or cells: guinea pig (Hartley) cerebral cortex membranes
The assay can be described thus: CCK receptor binding (brain), inhibition of 125I-CCK-33 binding. To be noted: 125I-CCK-33, guinea pig cerebral cortex, 25° C., 2 hours. The arrangement: species or system guinea pig (Male Hartley). The method, then: 2. CCK Receptor Binding (Brain)
CCK-33 was radiolabeled and the binding was performed according to the description for the pancreas method with modification according to Saito et al. (J. Neurochem. 37, 483-490, 1981).
Male Hartley guinea pigs (300-500 g) were sacrificed by decapitation and the brains were removed and placed in ice-cold 50 mM. Tris HCl plus 7.58 g/l Trizma-7.4 (pH 7.4 at 25° C.). Cerebral cortex was dissected and used as a receptor source. Each gram of fresh guinea pig brain tissue was homogenized in 10 ml of Tris Trizma buffer with a Brinkman polytron PT-10. The homogenates were centrifuged at 42,000 g for 15 min. […] All assays were run in duplicate or triplicate. The reaction mixtures were incubated at 25° C. for 2 hours and centrifuged in a Beckman Microfuge (4 minutes) immediately after adding 1 ml of ice-cold incubation buffer. The supernatant was aspirated and discarded, pellets were counted with a Beckman gamma 5000.

Setting [4] is: 125I-CCK-33, rat pancreas membranes, 37° C., 30 minutes, read-out: IC50 125I-CCK Pancreas.
The mark [5] stands for this setting: read-out: IC50 125I-CCK Pancreas.

The term IC50 denotes the concentration at which inhibition is half-maximal.

Read-outs that look alike come from different tables or passages of the source. Square brackets hold non-standard residues; d marks the D form. Peptide text beside a SMILES is read from it. * marks the point of attachment. sY = N[C@@H](Cc1ccc(OS(=O)(=O)O)cc1)C(=O)O; Cbz = O=C(OCc1ccccc1)*; Boc = CC(C)(C)OC(=O)* A value given as a limit tells only on which side of the number the result lay.

T2 sequence (H0VZC5 entry or part of it): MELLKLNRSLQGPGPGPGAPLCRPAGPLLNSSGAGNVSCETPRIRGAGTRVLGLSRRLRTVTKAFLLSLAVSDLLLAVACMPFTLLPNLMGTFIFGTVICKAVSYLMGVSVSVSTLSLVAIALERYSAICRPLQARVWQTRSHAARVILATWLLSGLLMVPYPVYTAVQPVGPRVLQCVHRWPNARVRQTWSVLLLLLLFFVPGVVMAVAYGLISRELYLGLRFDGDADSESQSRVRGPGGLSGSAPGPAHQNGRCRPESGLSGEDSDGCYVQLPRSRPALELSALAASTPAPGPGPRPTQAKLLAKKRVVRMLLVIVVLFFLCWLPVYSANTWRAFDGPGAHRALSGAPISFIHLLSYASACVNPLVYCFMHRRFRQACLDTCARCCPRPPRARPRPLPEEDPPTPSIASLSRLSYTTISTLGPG

For `CSCC[C@H](NC(=O)OC(C)(C)C)C(=O)N[C@@H](CC(=O)O)C(=O)N[C@@H](Cc1ccccc1)C(N)=O` [Boc-Met-Asp-Phe-NH2] (Boc-Met-Asp-Phe-NH2), the CCK antagonist activity result in the assay with CCK receptor [1] is “can function as CCK antagonists”.

Regarding `CCCN(CCC)C(=O)C(CCC(=O)O)NC(=O)c1ccccc1` (stereo not drawn) [proglumide], the “in vitro gastrin antagonism” value in the assay with gastrin receptor is recorded as “Very weak in vitro antagonists”.

Regarding `Cc1nnc2n1-c1ccccc1C(c1ccccc1F)=N[C@@H]2Cc1c[nH]c2ccccc12` [Compound 2, 6-(2-Fluorophenyl)-4-(R)-4-(3'-indolyl)methyl-1-methyl-4H-s-triazolo[4,3-a]-1,4-benzodiazepine], the results for the IC50 on CCK receptor [2] (setting [4]) and at CCK receptor [3] were 300 nM and 38.6 µM, respectively.

For `Fc1ccccc1C1=N[C@H](Cc2c[nH]c3ccccc23)c2nncn2-c2ccccc21` [Compound 1, 6-(2-Fluorophenyl)-4(R)-4-(3'-indolyl)methyl-4H-s-triazolo[4,3-a]-1,4-benzodiazepine], the IC50 on CCK receptor [2] (setting [4]) is 200 nM.

Consider `O=C(NC1N=C(c2ccccc2F)c2ccccc2-n2cnnc21)c1cc2ccccc2[nH]1` (stereo not drawn) [Compound 9, 6-(2-Fluorophenyl)-4-(indol-2-yl)carbonylamino-4H-s-triazolo[4,3-a]-1,4-benzodiazepine], for which the IC50 on CCK receptor [2] (setting [4]) is 0.9 nM; on CCK receptor [3], 0.053 µM.

On to `O=C(NC1N=C(c2ccccc2F)c2ccccc2-n2cnnc21)OCc1ccccc1` (stereo not drawn) [Compound 7, 6-(2-Fluorophenyl)-4-benzyloxycarbonylamino-4H-s-triazolo[4,3-a]-1,4-benzodiazepine], for which the IC50 at CCK receptor [2] (setting [5]) worked out at 220 nM; at CCK receptor [3], 8 µM.

Take `O=S(=O)(F)Cc1ccccc1` [phenylmethane sulfonyl fluoride, reference compound]: the “effect on the 125I-CCK receptor binding assay” value on CCK receptor [2] is “no effect”.

For the compound `CCCC(=O)Nc1nc2c(ncn2[C@@H]2O[C@@H]3COP(=O)(O)O[C@H]3[C@H]2OC(=O)CCC)c(=O)[nH]1` [dibutyryl cyclic GMP], the CCK antagonist activity entry in the assay with CCK receptor [1] is “most potent”.

In the case of `Cc1nnc2n1-c1ccccc1C(c1ccccc1F)=NC2NC(=O)c1cc2ccccc2[nH]1` (stereo not drawn) [Compound 10, 6-(2-Fluorophenyl)-4-(indol-2-yl)carbonylamino-1-methyl-4H-s-triazolo[4,3-a]-1,4-benzodiazepine], the IC50 on CCK receptor [2] (setting [4]) was found to be 0.4 nM; at CCK receptor [3], 0.066 µM.

`CSCC[C@H](N)C(=O)N[C@@H](CC(=O)O)C(=O)N[C@@H](Cc1ccccc1)C(N)=O` [Met-Asp-Phe-NH2] (H-Met-Asp-Phe-NH2): in the assay with CCK receptor [1], the CCK antagonist activity result is recorded as “can function as CCK antagonists”.

Consider `c1cnc2c(c1)ccc1cccnc12` [o-phenanthroline, reference compound], for which the “effect on the 125I-CCK receptor binding assay” value on CCK receptor [2] is listed as “no effect”.

`O=c1[nH]nc2n1-c1ccccc1C(c1ccccc1F)=N[C@@H]2Cc1c[nH]c2ccccc12` [Compound 5, 2,4-Dihydro-3(R)-(3'-indolyl)methyl-6-(2-fluorophenyl)-1H-S-triazolo-[4,3-a]-1,4-benzodiazepin-1-one solvate]: the IC50 came to 3100 nM on CCK receptor [2] and 63 µM on CCK receptor [3].

`O=C(NC1N=C(c2ccccc2F)c2ccccc2-n2cnnc21)c1ccc(Cl)cc1` (stereo not drawn) [Compound 8, 6-(2-Fluorophenyl)-4-(4-chlorophenyl)carbonylamino-4H-s-triazolo[4,3-a]-1,4-benzodiazepine]: the IC50 at CCK receptor [2] (setting [4]) was found to be 4.4 nM; on CCK receptor [3], 9.3 µM.

On to `Fc1ccccc1C1=N[C@H](Cc2c[nH]c3ccccc23)c2nnc(C(Cl)(Cl)Cl)n2-c2ccccc21` [Compound 6, 1-Trichloromethyl-4(R)-(3'-indolyl)methyl-6-(2-fluorophenyl)-4H-S-triazolo[4,3-a]-1,4-benzodiazepine solvate], for which the IC50 on CCK receptor [2] (setting [4]) is 25000 nM; on CCK receptor [3], more than 100 µM.

For `CSCC[C@H](NC(=O)[C@H](Cc1ccc(OS(=O)(=O)O)cc1)NC(=O)OCc1ccccc1)C(=O)NCC(=O)N[C@@H](Cc1c[nH]c2ccccc12)C(=O)N[C@@H](CCSC)C(=O)N[C@@H](CC(=O)O)C(N)=O` [Cbz-Tyr(SO3 H)-Met-Gly-Trp-Met-Asp-NH2] (Cbz-[sY]MGWMD-NH2), the CCK antagonist activity result in the assay with CCK receptor [1] is reported as “can function as CCK antagonists”.

`CN(C)Cc1nnc2n1-c1ccccc1C(c1ccccc1F)=N[C@@H]2Cc1c[nH]c2ccccc12` [Compound 4, 6-(2-Fluorophenyl)-4(R)-4-(3'-indolyl)methyl-1-dimethylaminomethyl-4H-s-triazolo[4,3-a]-1,4-benzodiazapine]: at CCK receptor [2] (setting [5]), the IC50 came out at 14000 nM.

In the case of `Fc1ccccc1C1=N[C@H](Cc2c[nH]c3ccccc23)c2nnc(-c3ccccc3)n2-c2ccccc21` [Compound 3, 6-(2-Fluorophenyl)-4(R)-4-(3'-indolyl)methyl-1-phenyl-4H-s-triazolo[4,3-a]-1,4-benzodiazepine], the IC50 at CCK receptor [2] (setting [5]) amounted to 22000 nM.
